Where “and” joins values, the source holds several entries; their conditions need not be identical. Equal entries are not always repeated.

By melting point is commonly meant the temperature of the solid-liquid transition. In the case of `CC(=O)Nc1ccc(Cl)cc1F` [2-fluoro-4-chloroacetanilide], the melting point was found to be 157 °C.

In turn, `NNC(=O)c1ccncc1` [Isonicotinohydrazide] had a melting point of 171 °C.

`Cc1cc(CCN2CCN(c3cccc(Cl)c3)CC2)n[nH]1` [mepiprazole] had a melting point of 106 °C.

The molecule `O=C(/C=C/c1ccc([N+](=O)[O-])cc1)c1ccccc1` [4-nitrochalcone] yielded a melting point of 164 °C.

`OB(O)c1ccc(F)c(F)c1F` [2,3,4-trifluorobenzeneboronic acid] displayed a melting point of 203 °C.

The molecule `CCCC(=O)CC` [3-hexanone] yielded a melting point of -55 °C.

For the molecule `Cc1ncc([N+](=O)[O-])n1CCO` [metronidazole], the melting point is 160 °C.

Turning to `ON=Cc1ccccn1` [pyridine-2-carboxaldoxime], the melting point came to 111 °C.

As to `Oc1ccc(-n2ccnc2)cc1` [4-(1-imidazolyl)phenol], the melting point is 206 °C.

Turning to `C(#Cc1ccccc1)c1ccccc1` [1,1'-Ethyne-1,2-diyldibenzene], the melting point was determined as 60 °C.

For the molecule `N#C/C(=C\c1ccc(Cl)cc1)c1nc(-c2ccccc2)cs1`, the melting point came out at 104 °C.

For the molecule `Cc1cc(CO)nn1-c1ccccn1` [(5-methyl-1-pyridin-2-yl-1H-pyrazol-3-yl)methanol], the melting point amounted to 45 °C.

The molecule `O=C(Cl)OCc1ccccc1` [benzyl chloroformate] had a melting point of -20 °C.

As for `O=C(O)Cc1cc(O)ccc1O` [2,5-dihydroxyphenylacetic_acid], the melting point came to 127 °C.

The molecule `O=C1C=CCCC1` [2-cyclohexen-1-one] had a melting point of -53 °C.

Molecule `CCOC(=O)/C(C(N)=S)=C1/NN=C(c2ccc(Cl)cc2)O1` gave a melting point of 176 °C.

Consider `CCC1(c2ccccc2)C(=O)NC(=O)NC1=O` [phenobarbital] [listing 1 of 2 here], for which the melting point was 174 °C and 176 °C.

Turning to `CSC(SC)=C1CCCC(=C(SC)SC)C1=C(C#N)C#N`, the melting point was 156 °C.

On to `COC(C)=O` [methyl acetate], for which the melting point is -98 °C.

`COc1ccc(N)cc1` [p-anisidine]: the melting point was found to be 59 °C.

In turn, `C=C[C@H]1C[N@@]2CC[C@H]1C[C@@H]2[C@@H](O)c1ccnc2ccccc12` [cinchonine] yielded a melting point of 258 °C.

Regarding `O=[N+]([O-])c1ccc(N2CCCCC2)cc1` [1-(4-nitrophenyl)piperidine], the melting point stood at 104 °C.

`CC1(C)[C@H]2CC[C@](C)(C2)[C@H]1O` [(1R)-endo-fenchyl alcohol] gave a melting point of 41 °C.

In turn, `CCOC(=O)CC(C)C` [ethyl_isovalerate] registered a melting point of -99 °C.

Take `O=C(O)Cc1c(F)cccc1F` [2,6-difluorophenylacetic acid]: the melting point came out at 101 °C.

With `O=c1nc[nH]c2c1ncn2[C@H]1CC[C@@H](CO)O1` [Didanosine], the melting point came to 162 °C.

For the molecule `CCC1(c2ccccc2)C(=O)NC(=O)NC1=O` [phenobarbital] [listing 2 of 2 here], the melting point stood at 175 °C.

The molecule `O=S(=O)(Cl)c1cccs1` [thiophene-2-sulfonyl chloride] had a melting point of 30 °C.

The molecule `Clc1ccc(C(Cl)(Cl)Cl)cc1` [4-chlorobenzotrichloride] yielded a melting point of 6 °C.

For the molecule `Clc1ccc(-c2ccnc(Cl)c2)cn1` [6,2'-dichloro-3,4'-bipyridine], the melting point is 222 °C.

For the molecule `CC(C)c1ccc(Cl)cc1` [p-chlorocumene], the melting point was -12 °C.

In turn, `CCc1nc(N)nc(N)c1-c1ccc(Cl)cc1` [Pyrimethamine] had a melting point of 234 °C.

Molecule `COC(=O)CCC(C)C1CCC2C3C(=O)C(Br)C4CCCCC4(C)C3CCC12C` (stereo not drawn) [methyl 6-bromo-7-oxocholan-24-oate] came in with a melting point of 124 °C.

In turn, `CCCCCCCCCCCCCCCCCC(=O)OC[C@@H](O)[C@H]1OC[C@H](O)[C@H]1O` [1,4-Anhydro-6-O-stearoyl-D-glucitol] displayed a melting point of 57 °C.

`CC(=O)NS(=O)(=O)c1ccc(N)cc1` [Sulfacetamide] came in with a melting point of 182 °C.

Consider `C=C1N(C)c2ccccc2C1(C)C` [1,3,3-trimethyl-2-methyleneindoline], for which the melting point is -10 °C.

Turning to `CSCC[C@@H](NC(=O)OC(C)(C)C)C(=O)O` [N-boc-D-methionine], the melting point was found to be 49 °C.

Molecule `N#Cc1ccc(Cl)c([N+](=O)[O-])c1` [4-chloro-3-nitrobenzonitrile] came in with a melting point of 100 °C.

`O=C(N[C@H](CO)[C@H](O)c1ccc([N+](=O)[O-])cc1)C(Cl)Cl` [chloramphenicol] had a melting point of 151 °C.

Regarding `Oc1ccccc1Br` [2-bromophenol], the melting point worked out at 5.6 °C.

`COC(C)(C)C` [2-Methoxy-2-methylpropane]: the melting point was -109 °C.

As for `Oc1ccccc1C=Nc1ccccc1` [salicylideneaniline], the melting point came to 50 °C.

Regarding `COc1cc(N)c(C(C)=O)cc1OC` [2'-amino-4',5'-dimethoxyacetophenone], the melting point stood at 106 °C.

As to `NCCN` [ethylenediamine], the melting point was 10 °C.

The molecule `COc1ccc([C@@H]2CC(=O)c3c(O)cc(O)cc3O2)cc1O` [hesperetin] registered a melting point of 228 °C.

The molecule `Cc1ccc(S(=O)(=O)O)cc1` [p-toluenesulfonic acid] displayed a melting point of 104 °C.

In turn, `Cc1ccc(O)c(O)c1` [4-methylcatechol] displayed a melting point of 68 °C.

`Cc1cc(/C=C2\SC(N(CC#N)c3ccccc3)=NC2=O)c(C)n1-c1ccc(C(F)(F)F)cc1` [OSM-S-42] displayed a melting point of 182 °C.

Molecule `ClC1CCCCC1` [chlorocyclohexane] yielded a melting point of -44 °C.

Turning to `C=CCCCCCCCCC` [1-undecene], the melting point is -49 °C.

Molecule `COP(=S)(OC)Oc1ccc([N+](=O)[O-])cc1` [O,O-Dimethyl O-(4-nitrophenyl) phosphorothioate] gave a melting point of 36 °C.

`O=C(O)COc1ccc(CO)cc1` [4-(hydroxymethyl)phenoxyacetic acid] yielded a melting point of 112 °C.

Molecule `N#Cc1ccccc1C(N)=O` [o-cyanobenzamide] registered a melting point of 172 °C.

The molecule `CC(=O)Nc1ccc(-c2ccc3nn(-c4ccccc4)nc3c2)cc1` [N-[4-(2-phenyl-2H-benzotriazol-5-yl)phenyl]acetamide] yielded a melting point of 173 °C.

Turning to `N#CC(=CN(O)c1ccccc1)c1ccccc1` [3-[hydroxy(phenyl)amino]-2-phenylprop-2-enenitrile], the melting point was 155 °C.

Take `O=S(=O)(Cl)c1cc(Cl)cc(Cl)c1` [3,5-dichlorobenzenesulfonyl chloride]: the melting point stood at 32 °C.

As to `Nc1ccc(C(=O)O)cc1` [4-Aminobenzoic acid], the melting point was 189 °C.

`O=C(Cl)c1c(Cl)cccc1Cl` [2,6-dichlorobenzoyl chloride]: the melting point came to 17 °C.

The molecule `CC(CCc1oc2ccc([N+](=O)[O-])cc2c1-c1ccc(C)o1)=NO` had a melting point of 161 °C.

As for `COc1c(C)cc(B(O)O)cc1C` [4-methoxy-3,5-dimethylbenzeneboronic acid], the melting point amounted to 237 °C.

For the molecule `Cc1c(O)cccc1O` [2-methylresorcinol], the melting point came out at 120 °C.

In turn, `COc1ccccc1N1CCN(CCCNc2cc(=O)n(C)c(=O)n2C)CC1` [urapidil] gave a melting point of 156 °C.

With `Cc1cc(C(F)(F)F)n2nc(N)c(/N=N/c3c(Br)cc(Br)cc3Br)c2n1`, the melting point was found to be 99 °C.

For the origin of these results see the Bradley open melting point set (2014).
